Series [1] is described as follows: Removal of thymidine analogues from circulation (S phase labelling window after injection). Conditions: mouse, in vivo. The procedure:
These two molecules become stably incorporated into DNA during DNA replication (S phase). When either is injected into mice, it labels at high levels only those tissue cells actively replicating DNA (in S phase) at that time. Because these drugs are both rapidly removed from circulation, only cells actively replicating DNA within 1 hour of injection are labelled. If the second drug is introduced into the same animal at a later time, thereafter, it too will label only those cells in S phase at the time of the second injection. The tissues are then collected and stained for BRDU and EDU with separate fluorescence tags. The intensity of each marker is then determined by fluorescent image analysis. Fortunately, it is the characteristic of dividing cells that these two labels are incorporated most efficiently into nuclei of cells near the middle of S phase. When the two injections are separated by the length of the cell cycle, therefore, both markers will be stained at maximal levels in the same cell. The cell cycle characteristics of a tissue can then be determined by comparing results following injections separated by increasing lengths of time.

Another series concerns Lewis lung carcinoma. Nature of the series: Lewis lung carcinoma tumor growth in C57Bl/6 mice. The settings on record: for inhibition of Lewis lung carcinoma tumor growth: Cell Cycle Therapy, IP injections every 10 hours 40 min with rest periods. It counts as in vivo, mouse. On the procedure: The Lewis Lung Carcinoma model is a commonly used tumor model for assessment of general anti-tumor activity. The cells can be grown in culture and then introduced underneath the skin on the back of syngeneic […] mice. When 1-2 million cells are introduced, tumors begin to form within 6-10 days. This is an extremely aggressive tumor, with doubling times of 3 days or less. […] In this study 2 million cells were injected underneath the skin on the mid back of the mice. The tumor was measured with calipers to determine its size. To confirm size measurements, the tumor was excised in total and weighed at the end of the experiment. All anti-tumor drug injections were intraperitoneal (IP). Mice in the range of 8-16 weeks of age were utilized, but within a given experiment, mice within the same age range were generally used for comparison. All studies were conducted under standard guidelines, and conformed to the protocol approved the Case Western Reserve and the Northeast Ohio Medical University IACUC. Weight loss was measured to determine animal health, with loss of over 20% an indication for experimental termination. Similarly, tumors were not allowed to grow beyond 15% of body weight.
The ability of a treatment regimen to block tumor growth was determined with injections of topotecan, either alone or in combination with EDU. […] In this case, the increase of tumor size was measured. […] In general, EDU injections of 0.2 ml of 9 mg/ml drug (in phosphate buffered saline) were performed. These injections involved intermittent rest periods, generally 1-2 rest periods between 4-5 EDU injections. To increase the effectiveness of EDU injections, two such injections were at times performed within a 20 min period every 10 hours 40 min.
When higher volumes were injected (0.23 ml) the rest times were increased. […] With 0.2 ml injections of topotecan ([…]), three injections were often followed by 4-5 rest periods (FIGS. 12 and 13A-C).
EDU was always injected at 9 mg/ml (0.2 ml per injection). 1-3 such injections were followed immediately, or after 1-5 rest periods, by 1-4 injections of topotecan (0.18 ml, 0.2 mg/ml).
The experiment involved 24 C57Bl/6 mice, each of which received injections of 2 million Lewis lung carcinoma cells under the skin on their backs. Three days later these animals were randomly divided into three groups. The first group received three injections of topotecan separated by the length of the cell cycle (10 hours 40 min). The three-injection set was then followed by a long rest period precisely equal to 5 cell cycle lengths; and the process was repeated (FIG. 14C). For comparison, another set of mice received a single injection at the same time each day. […] All topotecan injections were identical (0.2 ml of 0.18 mg/ml topotecan). As a control, 8 mice received 0.2 ml injections of phosphate buffered saline (PBS) at the same time as the cell cycle group. […]

For another series, the system named is mouse gut crypt cells. Nature of the series: Cell cycle synchrony of gut crypt cells after repeated injections (EDU/BRDU incorporation, cyclin D1 staining). The settings on record: for ability to induce cell cycle synchrony in the mouse gut: EDU: high concentrations; for cell cycle synchrony of gut cells: four 10-hour injections separated by 40 hours without injection, repeated four times. The procedure:
All experiments were performed according to separate protocols approved by IACUC committees at the following institutions: the Northeast Ohio Medical University, and Case Western Reserve University. Studies of cell cycle length were approved by the IACUC of the Cleveland State University. Recall that the proliferating cells of the small intestine are located near the basement membrane in regions termed the crypt. Cells in this region are the only cells that proliferate in the gut, with the exception of rare proliferation of support cells in the matrix of the villi. Epithelial cells in the crypt region are essentially all proliferating all the time. Consequently, they are actively labeled by a pulse of EDU to label cells in S phase. Cells not labeled with EDU are in G2-G1 phases, and are labeled with cyclin D1 (FIG. 6).
Finally, the tissue was analyzed a full 10 hours following the final topotecan injection.
As a control to the above studies, the tissues described above were stained for the expression of cyclin D1. […] Thus, upon entry into S phase the level of cyclin D1 is always reduced to near zero. It returns to high levels of expression upon entry into G2 phase, but only in cells that are actively proliferating. Therefore, an actively proliferating cell would incorporate EDU if it were in S phase, and it would express cyclin D1 if it were in any other cell cycle phase. If all the cells of a tissue either incorporate EDU or express high cyclin D1 levels, all the cells of the tissue are actively proliferating. […] Further analysis was performed at 2 hour intervals from 0 hours to 10 hours following the final topotecan injection.
Separate animals received injections of 0.20 ml of topotecan at 0.33 mg/ml, 0.20 mg/ml, or 0.12 ml of 0.20 mg/ml topotecan. Each animal was given four 10-hour injections of a given concentration, separated by 40 hours without injection; repeated four times. At 5 hours following the final topotecan injection, BRDU was injected into the animals to identify cells in S phase between the timed topotecan injection. Animals injected with BRDU were then injected again 5 hours later with EDU (10 hours after the final topotecan injection), to identify cells in S phase at the time the next successive topotecan injection would have taken place. 50 min following the EDU injection tissues were collected and analyzed.

The procedure of series [2]: Extensive studies were conducted to determine the optimal spacing between injections for C57Bl/6 mice, as differences between mouse strains might exist. […] After the 9 injections spaced apart by these times were complete, the animals were weighed over the next 10 days to determine their overall health. […]
A further series relates to NIH3T3. Nature of the series: Cell cycle specific toxicity in NIH3T3 cultures (clonal survival after brief drug treatment). The class given is cell-based.
Series [3] relates to Lewis lung carcinoma tumors. Nature of the series: Cell cycle synchrony of Lewis lung carcinoma tumor cells (EDU labeling). The class given is in vivo, mouse. Conditions: 9 injections separated by 10 hours, tumor-bearing C57Black mice. On the procedure:
All studies of tumor killing were performed exactly as described above for studies of cell cycle synchrony. Thus, 9 injections of topotecan were separated from one another by 10 hours in C57Black mice carrying a tumor of approximately 0.5 gm. EDU was injected into three different topotecan treated animals at 1 hour, 5 hour or 10 hours as a marker for DNA synthesis. A control tumor-bearing mouse received mock injections and was injected with EDU 5 hours after the final injection. […] together with normal gut tissue was collected and analyzed.

The subject of a further series is DNA synthesis. Nature of the series: Rate of DNA synthesis after topotecan (observation of the inventor).
How the values of series [4] were obtained:
Analyses began with approximately 10% of the LD50 concentration. It was then escalated until overall toxicity to the animals was observed. The final concentration of topotecan injected was 0.33 mg/ml-0.2 mg/ml; 0.05-0.27 ml per injection (depending on the mouse strain and weight of the mouse). Following determination of general topotecan toxicity following multiple injections, it was necessary to determine if, as predicted, injections spaced apart by the length of the cell cycle would be less harmful to the animals.
[…] […] […] Thus, 9 injections at 8 hours, or 9 injections at 12 hours, 14 hours, 16 hours or 20 hours were performed, and the effect of these upon the animals determined. The 8 hour time was selected to definitely be shorter than the cell cycle, and 20 hours to be longer than the cell cycle, so that negative controls would be built into the protocol.
This is another data set of the same source.

[5] abbreviates: injections every 24 hours for up to 20 days.

“Also recorded” adds a separate entry of the source.

Source text for DNA synthesis: Topotecan treatments would be removed and followed at various times thereafter with an BRDU treatment.
Procedure for NIH3T3: The examples were performed on the contact inhibited cell line, NIH3T3. […] They must be cultured so as to never reach confluence; since, like normal cells, they stop growing when becoming confluent on the culture plate. Thus, they are plated at 60,000 to 150,000 cells per 35 mm plate, and transferred to a new plate every 2-3 days. The cells must also be limited in passage number to ensure their growth rate is rapid. The definition of low passage cells will vary from one lab to another, and the actual cell cycle length of these cells may vary, but it is critical that from one experiment to another the length of the cell cycle remains constant.
Constant killing over a broad concentration range: The drug to be tested is diluted across a broad concentration range, and placed on separate actively proliferating NIH3T3 cultures for two hours. […] The plates are then fixed, stained with crystal violet, and the number of colonies counted and compared to a mock treated culture. […] Cloning of the cells following drug treatment allows a quantitative determination of the number of surviving cells.
Serum stimulated growth: NIH3T3 cells stop growing and enter quiescence when serum is reduced in the medium to 0.3%, so long as they are at a sufficient density on the plate. […] The drug to be analyzed is added for 3 hours at various times following serum addition, and then washed off. […]

Take `O=c1[nH]c(=O)n([C@H]2C[C@H](O)[C@@H](CO)O2)cc1Br` [BRDU, Bromodeoxyuridine]: the “time after injection within which replicating cells are labelled (rapid removal from circulation)” value in series [1] was not above 1 h.
On to `C#Cc1cn([C@H]2C[C@H](O)[C@@H](CO)O2)c(=O)[nH]c1=O` [EDU, 5-Ethynyl-2′-deoxyuridine], for which, in the series on Lewis lung carcinoma, the “inhibition of Lewis lung carcinoma tumor growth” value is on record as “reduction in tumor growth; also recorded: highly efficient in blocking tumor growth”. The “ability to induce cell cycle synchrony in the mouse gut” value with mouse gut crypt cells was “shown to induce cell cycle synchrony”. Moreover, the toxicity to animals result in series [2] (EDU injections) is “not highly toxic to animals”.
Take `COc1cc([C@@H]2c3cc4c(cc3[C@@H](O[C@@H]3O[C@@H]5CO[C@@H](C)O[C@H]5[C@H](O)[C@H]3O)[C@H]3COC(=O)[C@H]23)OCO4)cc(OC)c1O` [Etoposide]: in the series on NIH3T3, the “width of concentration range selectively toxic for S phase cells” value was found to be 10 fold.
For the compound `N.N.[Cl][Pt][Cl]` [cisplatin], the “delay of tumor formation” value in the series with Lewis lung carcinoma (daily injections) is on record as “less than 3 days”. The “cell cycle synchrony of injected animals' cells” value with mouse gut crypt cells (repeated injections, any time between injections) is listed as “at no time were the cisplatin injected cells synchronous”.
Take `CC[C@@]1(O)C(=O)OCc2c1cc1n(c2=O)Cc2cc3c(CN(C)C)c(O)ccc3nc2-1` [topotecan]: the “inhibition of tumor appearance, longer than in untreated animals” value in the series on Lewis lung carcinoma (Cell Cycle Therapy with injections every 10 hours 40 minutes and rest periods) fell in the range of 7 to 12 days. The “inhibition of Lewis lung carcinoma tumor growth” value with Lewis lung carcinoma is “dramatically inhibited; also recorded: highly efficient in blocking tumor growth”. Further, in the series on Lewis lung carcinoma (FIG. 14B, both topotecan treatments (Cell Cycle and Daily)), the “tumor growth compared to the control group” value is “dramatic decreases in tumor growth”. Further, the “reduction of tumor size” value in the series with Lewis lung carcinoma (Lewis lung carcinoma, any treatment protocol tested) is on record as “never been found in these studies to reduce tumor size”. Also, in the series with Lewis lung carcinoma (either protocol (Cell Cycle or daily), 9.5 days), the “average tumor size relative to PBS treated animals” value is given as “¼”. The tumor killing result in the series with Lewis lung carcinoma (setting [5]) is “tumor killing was enhanced”. For the same compound, the “cell cycle synchrony of tumor cells (EDU labeling at 1, 5, 10 hours)” value in series [3] is “had not been synchronized”. Further, in the series with DNA synthesis, the “effect on rate of DNA synthesis” value is reported as “dramatically reduces the rate of DNA synthesis”. Moreover, the “cell cycle synchrony of gut epithelial cells” value in the series on mouse gut crypt cells (9 injections every 10 hours) is recorded as “complete cell cycle synchrony”. Moreover, the “cell cycle phase / EDU incorporation of crypt cells” value with mouse gut crypt cells (9 injections every 10 hours, 4 to 8 hours following the final injection) is recorded as “in S phase; also recorded: high levels of EDU incorporation”; with mouse gut crypt cells (9 injections every 10 hours, 2 hours and 10 hours following the final injection) it was “low levels of EDU incorporation; also recorded: not synthesizing DNA”. Besides, the “cyclin D1 expression in crypt cells” value is “greatly reduced proportion of the cells” in the series on mouse gut crypt cells (9 injections every 10 hours, 5 hours after the final injection) and “expressed at high levels” with mouse gut crypt cells (9 injections every 10 hours, immediately after or 10 hours following the final injection). For the same compound, the “gut cells in S phase (EDU incorporation)” value in the series with mouse gut crypt cells (9 injections every 10 hours, 5 hours following the final injection) is “essentially all the cells were in S phase; also recorded: efficiently labeled with EDU”; in the series with mouse gut crypt cells (9 injections every 10 hours, 10 hours following the final injection), “none of the cells were in S phase; also recorded: very little EDU labeling”; with mouse gut crypt cells (9 injections every 10 hours, immediately following the final injection), “no cells were in S phase”. Moreover, in the series with mouse gut crypt cells (9 injections separated by 9 hours), the “gut morphology, EDU incorporation and synchrony of crypt cells” value is “unhealthy gut morphology and few gut cells able to incorporate EDU; also recorded: no evidence of cell cycle synchrony”. Besides, in the series on mouse gut crypt cells (9 injections separated by 10 hours, C57Black mice with Lewis lung carcinoma), the “cell cycle synchrony of normal gut cells in tumor-bearing animals” value is “induced cell cycle synchrony; also recorded: have been synchronized”. Moreover, the “synchronization of gut tissues” value in the series with mouse gut crypt cells (9 injections separated by times other than every 10 hours) is reported as “In no case were the tissues synchronized”. Also, in the series on mouse gut crypt cells, the “ability to induce cell cycle synchrony in the mouse gut” value is reported as “shown to induce cell cycle synchrony”. Moreover, the “cell cycle synchrony of gut cells” value is given as “almost complete” in the series on mouse gut crypt cells (0.20 ml of 0.33 mg/ml or 0.20 mg/ml) and “very little if any synchrony” in the series with mouse gut crypt cells (injected concentration 0.12 mg/ml). The “cell cycle synchrony of the gut” value with mouse gut crypt cells (setting [5]) is recorded as “cell cycle synchrony of the gut was observed”. Besides, the “crypt cell division interval” value in the series on mouse gut crypt cells (setting [5]) amounted to 12 h. Moreover, the “toxicity to gut tissue” value in the series with mouse gut crypt cells (mouse, in vivo) is on record as “Even greater toxicity”. Also, in series [2] (9 injections, spacings 9 h 30 min to 11 h 20 min, weight over next 10 days, C57Bl/6 mice), the “injection spacing best tolerated” value stood at 10 hours 40 minutes. For the same compound, the “percent weight loss, injections separated by cell cycle length compared to daily injections” value in series [2] (mouse, in vivo) is on record as “dramatically reduced”. In addition, the “toxicity on continued injections” value in series [2] (mouse, in vivo) is on record as “without developing significant toxicity”. Besides, in series [4] (4 injections every 10 hours separated by 40 hours without injection), the “total amount of drug tolerated by the animals” value is on record as “increased”. Further, in series [4] (9 injections at 8, 12, 14, 16 or 20 hours between injections), the “ability of animals to survive repeated injections” value was “had to be euthanized”.

Source of the values: patent US20240335433A1, “CELL CYCLE SYNCHRONIZATION PROCESS” (priority 2023, published 2024).
